Reference: ChEMBL document CHEMBL5029180, “Design and synthesis of an oral prodrug alalevonadifloxacin for the treatment of MRSA infection” (Bioorg Med Chem Lett, 2021)

Legend:
[1] = Prodrug activation in human whole blood assessed as S-(-)-nadifloxacin release measured after 30 to 60 mins by LC-MS/MS analysis; type: tissue-based; details: time 30-60 min
[2] = Prodrug activation in human intestinal S9 fraction assessed as S-(-)-nadifloxacin release measured after 90 mins by LC-MS/MS analysis; type: subcellular, Intestine; details: s9, 1.5 h
[3] = Aqueous solubility of compound at pH 7; type: physicochemical
[4] = Prodrug activation in human liver S9 fraction assessed as S-(-)-nadifloxacin release measured after 30 to 60 mins by LC-MS/MS analysis; type: subcellular; details: time 30-60 min

| Drug metabolism [1] | Drug metabolism [2] | solubility [3] | Drug metabolism [4] | SMILES |
| --- | --- | --- | --- | --- |
| Metabolite_Detected | Metabolite_Detected | < 1 mg/mL | Metabolite_Detected | CS(=O)(=O)O.C[C@H](N)C(=O)OC1CCN(c2c(F)cc3c(=O)c(C(=O)O)cn4c3c2CC[C@@H]4C)CC1 |
| – | – | > 200 mg/mL | – | CC(C)[C@H](N)C(=O)OC1CCN(c2c(F)cc3c(=O)c(C(=O)O)cn4c3c2CC[C@@H]4C)CC1.CS(=O)(=O)O |
| – | – | > 200 mg/mL | – | CC(C)[C@H](N)C(=O)OC1CCN(c2c(F)cc3c(=O)c(C(=O)O)cn4c3c2CC[C@@H]4C)CC1 |
| – | – | < 1 mg/mL | – | C[C@H]1CCc2c(N3CCC(O)CC3)c(F)cc3c(=O)c(C(=O)O)cn1c23.N=C(N)NCCC[C@H](N)C(=O)O.O.O.O.O |
